ChEMBL document CHEMBL1201862, “PubChem BioAssay data set” (2004)
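In this assay, cells in 96-well plates receive the compound at five concentrations for 48 hours. Endpoints are linearly interpolated between the surrounding concentrations. GI50 = concentration required for 50% inhibition of growth.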 Activity calls are given as the source filed them. Rule as the data show it: active = GI50 up to about 1.1 µM and inactive = higher.

How the values were obtained:
Test in all cases: NCI tumour cell line growth inhibition, 48 h
[1] = tested on: SR
[2] = tested on: SF-295
[3] = tested on: SK-MEL-28
[4] = tested on: MOLT-4
[5] = tested on: HL-60
[6] = tested on: SNB-75
[7] = tested on: COLO 205
[8] = tested on: IGROV-1
[9] = tested on: ACHN
[10] = tested on: Malme-3M
[11] = tested on: OVCAR-3
[12] = tested on: M14
[13] = tested on: HCT-116
[14] = tested on: SK-MEL-5
[15] = tested on: KM12
[16] = tested on: HT-29
[17] = tested on: NCI-H23
[18] = tested on: HOP-92

Measured: GI50

O=C1[C@H]2ON(c3ccccc3)C(c3ccccc3Cl)[C@H]2C(=O)N1c1ccc(Cc2ccc(N3C(=O)[C@@H]4ON(c5ccccc5)C(c5ccccc5Cl)[C@@H]4C3=O)cc2)cc1 (some centres not stated)
inactive: [1] > 100 µM | [2] > 100 µM | [3] > 100 µM | [4] > 100 µM | [5] > 100 µM | [6] > 100 µM | [7] > 100 µM | [8] > 100 µM | [9] > 100 µM | [10] > 100 µM | [11] > 100 µM | [12] 21.7 µM | [13] > 100 µM | [14] 71.3 µM | [15] > 100 µM | [16] > 100 µM | [17] > 100 µM | [18] 71 µM

O=C(CCN1CCCCC1CCO)Nc1ccc2c(c1)C(=O)c1ccc(NC(=O)CCN3CCCCC3CCO)cc1C2=O (configuration not stated)
inactive: [1] 4.14 µM | [2] 16.7 µM | [3] 10.1 µM | [4] 4.25 µM | [5] 3.24 µM | [6] 2.81 µM | [7] 2.11 µM | [8] 4.9 µM | [9] 7.93 µM | [10] 2.64 µM | [11] 2.37 µM | [13] 4.11 µM | [14] 9.4 µM | [15] 2.54 µM | [16] 5.52 µM | [17] 15 µM | [18] 13.2 µM

CN(C)C(=O)c1ccc([N+](=O)[O-])cc1
inactive: [1] > 100 µM | [2] > 100 µM | [3] > 100 µM | [4] > 100 µM | [5] > 100 µM | [6] > 100 µM | [7] > 100 µM | [8] > 100 µM | [9] > 100 µM | [10] > 100 µM | [11] > 100 µM | [12] > 100 µM | [13] > 100 µM | [14] > 100 µM | [15] > 100 µM | [16] > 100 µM | [17] > 100 µM | [18] > 100 µM

COC(=O)C(=O)C(C(=O)C=C(C)C)C(=O)C(=O)Nc1ccc(Cl)cc1C (configuration not stated)
inactive: [1] 23.3 µM | [2] > 100 µM | [3] > 100 µM | [4] > 100 µM | [5] > 100 µM | [6] > 100 µM | [7] > 100 µM | [8] > 100 µM | [9] > 100 µM | [10] > 100 µM | [11] > 100 µM | [12] > 100 µM | [13] > 100 µM | [14] > 100 µM | [15] > 100 µM | [16] > 100 µM | [17] > 100 µM | [18] > 100 µM

COC1=C(C)C(=O)c2c(cc3c(c2O)C(C)(CCC=C(C)C)C(C)O3)C1=O (configuration not stated)
inactive: [1] > 85.7 µM | [2] 20.3 µM | [3] > 100 µM | [4] > 100 µM | [5] > 100 µM | [6] 19.9 µM | [7] > 100 µM | [8] > 100 µM | [9] > 100 µM | [10] > 76.4 µM | [11] > 100 µM | [12] 23.4 µM | [13] > 100 µM | [14] 13.4 µM | [15] > 55.7 µM | [16] 37 µM | [17] 9.71 µM | [18] > 100 µM

Cc1c(-c2nnc(-c3ccc(Cl)cc3)o2)c(=O)n(-c2ccccc2)n1C
inactive: [1] > 100 µM | [2] > 100 µM | [3] > 100 µM | [4] > 100 µM | [5] > 100 µM | [6] > 100 µM | [7] > 100 µM | [8] > 100 µM | [9] > 100 µM | [10] > 100 µM | [11] > 100 µM | [12] > 100 µM | [13] > 100 µM | [15] > 100 µM | [16] > 100 µM | [17] > 100 µM | [18] > 100 µM

C[C@]12CCC(=O)C[C@H]1CCC(O)[C@@H]2Br (some centres not stated)
inactive: [1] > 100 µM | [2] > 100 µM | [3] > 100 µM | [4] > 100 µM | [5] > 100 µM | [6] > 100 µM | [7] > 100 µM | [8] > 100 µM | [9] > 100 µM | [10] > 100 µM | [11] > 100 µM | [12] > 100 µM | [13] > 100 µM | [14] > 100 µM | [15] > 100 µM | [16] > 100 µM | [17] > 100 µM | [18] > 100 µM

CC(=O)O/N=C/c1ncccc1CO
inactive: [1] > 100 µM | [2] > 100 µM | [3] > 100 µM | [4] > 100 µM | [5] > 100 µM | [6] > 100 µM | [7] > 100 µM | [8] > 100 µM | [9] > 100 µM | [10] > 100 µM | [11] > 100 µM | [12] > 100 µM | [13] > 100 µM | [14] > 100 µM | [15] > 100 µM | [16] > 100 µM | [17] > 100 µM | [18] > 100 µM
